# Data as given in PMC10991105 (Bioresources and Bioprocessing, 2024).
# Biological target: T1, tyrosinase
# T1 construct: gene PPO1; tyrosinase of unstated source and supplier
# Experiment: L-tyrosine oxidation, absorbance at […] nm
# Assay type: biochemical
# Conditions: L-tyrosine substrate (0.1 mg/mL stock, 40 μL in 200 μL); PBS; 37 °C; 30 min
smiles,measurement,value
CCCCCCCCCCCC(=O)OC[C@H]1O[C@H](Oc2ccc(O)cc2)[C@H](O)[C@@H](O)[C@@H]1O [6′-O-lauroylarbutin],IC50,35 µM
